Data on 1 compound can be found in publication doi:10.1101/2025.11.04.686469, “Discovery of Host-Directed Small Molecules with Broad Anti-Leishmanial Efficacy” (bioRxiv, 2025).

The test system of this experiment is intracellular L. mexicana amastigotes. The experiment can be described thus: microbe, parasite or virus in culture. The class given is cell-based, Leishmania mexicana. To be noted: bone marrow derived macrophages, Giemsa staining. On the procedure:
Bone marrow derived macrophages (BMDMs) were isolated from BALB/c mice and cultured as previously described. Briefly, bone marrow was harvested from long bones of mice and the isolated cells were seeded at a concentration of 2 x 10^6 cells/mL in petri dishes with RPMI media supplemented with 10% FBS, 1% Penn-Strep and 10% L929 conditioned media (LCM). Completely differentiated BMDMs are obtained after 7 days of culture with media change every 2 days. Harvested cells were seeded onto 10 mm glass cover slips at 5 x 10^5 cells/ well of a 24 well plate in DMEM media (without LCM) and allowed to adhere overnight. BMDM cells are then infected overnight with LV82 L. donovani or L. mexicana (NR-51210) at a multiplicity of infection of 10. After infection, cells were washed three times with fresh media to remove extracellular promastigotes and treated with compounds for a 72-hour incubation. BMDM cells were then washed with phosphate buffered saline, fixed with ice-cold methanol, and stained with Giemsa (5% v/v in water). The cover slips with stained cells are mounted onto glass slides and imaged on EVOS XL (100X, Thermo Fisher Scientific). Leishmania amastigotes per 100 macrophages were determined in a blinded manner.

The structures appear in SMILES notation.

`O=C(CNCc1cccc(F)c1)Nc1ccc(-n2cc(C(F)(F)F)nc2-c2ccc(-c3ccc(C(F)(F)F)cc3)cc2)cc1` [Compound 197]: the IC50 – broadly, the concentration needed to halve the response being measured – amounted to 1700 nM. The same compound yielded an IC50 (Leishmania mexicana, Macrophage) below 2000 nM.
